Results: US20200163943A1, “METHODS FOR TREATING DRAVET SYNDROME” (Cavion, Inc., priority 2017, published 2020)

Experiments:
[1] = target: N-Type (Homo sapiens, UniProt Q00975); assay: N-Type calcium channel counter-screen; format: biochemical
[2] = system: Panlabs; assay: Panlabs selectivity panel
[3] = target: PGP (Homo sapiens, UniProt P08183); assay: PGP substrate assay; format: in vitro ADME
[4] = Pharmacokinetics in rat; format: in vivo
[5] = target: hERG (Homo sapiens, UniProt Q12809); assay: hERG counter-screen; format: biochemical
[6] = Pharmacokinetics in monkey; format: in vivo
[7] = Papp permeability; format: in vitro ADME; conditions: not told
[8] = system: WAG/Rij; assay: WAG/Rij in vivo model; conditions: 10 mpk, @4 hr
[9] = system: L-Type; assay: L-Type calcium channel counter-screen; format: biochemical
[10] = target: T1, α1I (Homo sapiens, UniProt Q9P0X4); assay: α1I VC (voltage clamp) at set holding potentials; format: cell-based
[11] = Pharmacokinetics in dog; format: in vivo
[12] = system: Na Channel; assay: Na Channel counter-screen; format: biochemical
[13] = target: T1, α1I; assay: α1I potency; format: cell-based
[14] = target: α1I + Kir (Homo sapiens, UniProt Q9P0X4); assay: α1I + Kir potency; format: cell-based
[15] = plasma, 10 mg/kg, PO (1% methylcellulose), 10 mpk
[16] = plasma, 3 mg/kg, PO (1% methylcellulose), 3 mpk
[17] = plasma, 1 mg/kg, PO (1% methylcellulose), 1 mpk

T1 sequence (Q9P0X4 whole entry): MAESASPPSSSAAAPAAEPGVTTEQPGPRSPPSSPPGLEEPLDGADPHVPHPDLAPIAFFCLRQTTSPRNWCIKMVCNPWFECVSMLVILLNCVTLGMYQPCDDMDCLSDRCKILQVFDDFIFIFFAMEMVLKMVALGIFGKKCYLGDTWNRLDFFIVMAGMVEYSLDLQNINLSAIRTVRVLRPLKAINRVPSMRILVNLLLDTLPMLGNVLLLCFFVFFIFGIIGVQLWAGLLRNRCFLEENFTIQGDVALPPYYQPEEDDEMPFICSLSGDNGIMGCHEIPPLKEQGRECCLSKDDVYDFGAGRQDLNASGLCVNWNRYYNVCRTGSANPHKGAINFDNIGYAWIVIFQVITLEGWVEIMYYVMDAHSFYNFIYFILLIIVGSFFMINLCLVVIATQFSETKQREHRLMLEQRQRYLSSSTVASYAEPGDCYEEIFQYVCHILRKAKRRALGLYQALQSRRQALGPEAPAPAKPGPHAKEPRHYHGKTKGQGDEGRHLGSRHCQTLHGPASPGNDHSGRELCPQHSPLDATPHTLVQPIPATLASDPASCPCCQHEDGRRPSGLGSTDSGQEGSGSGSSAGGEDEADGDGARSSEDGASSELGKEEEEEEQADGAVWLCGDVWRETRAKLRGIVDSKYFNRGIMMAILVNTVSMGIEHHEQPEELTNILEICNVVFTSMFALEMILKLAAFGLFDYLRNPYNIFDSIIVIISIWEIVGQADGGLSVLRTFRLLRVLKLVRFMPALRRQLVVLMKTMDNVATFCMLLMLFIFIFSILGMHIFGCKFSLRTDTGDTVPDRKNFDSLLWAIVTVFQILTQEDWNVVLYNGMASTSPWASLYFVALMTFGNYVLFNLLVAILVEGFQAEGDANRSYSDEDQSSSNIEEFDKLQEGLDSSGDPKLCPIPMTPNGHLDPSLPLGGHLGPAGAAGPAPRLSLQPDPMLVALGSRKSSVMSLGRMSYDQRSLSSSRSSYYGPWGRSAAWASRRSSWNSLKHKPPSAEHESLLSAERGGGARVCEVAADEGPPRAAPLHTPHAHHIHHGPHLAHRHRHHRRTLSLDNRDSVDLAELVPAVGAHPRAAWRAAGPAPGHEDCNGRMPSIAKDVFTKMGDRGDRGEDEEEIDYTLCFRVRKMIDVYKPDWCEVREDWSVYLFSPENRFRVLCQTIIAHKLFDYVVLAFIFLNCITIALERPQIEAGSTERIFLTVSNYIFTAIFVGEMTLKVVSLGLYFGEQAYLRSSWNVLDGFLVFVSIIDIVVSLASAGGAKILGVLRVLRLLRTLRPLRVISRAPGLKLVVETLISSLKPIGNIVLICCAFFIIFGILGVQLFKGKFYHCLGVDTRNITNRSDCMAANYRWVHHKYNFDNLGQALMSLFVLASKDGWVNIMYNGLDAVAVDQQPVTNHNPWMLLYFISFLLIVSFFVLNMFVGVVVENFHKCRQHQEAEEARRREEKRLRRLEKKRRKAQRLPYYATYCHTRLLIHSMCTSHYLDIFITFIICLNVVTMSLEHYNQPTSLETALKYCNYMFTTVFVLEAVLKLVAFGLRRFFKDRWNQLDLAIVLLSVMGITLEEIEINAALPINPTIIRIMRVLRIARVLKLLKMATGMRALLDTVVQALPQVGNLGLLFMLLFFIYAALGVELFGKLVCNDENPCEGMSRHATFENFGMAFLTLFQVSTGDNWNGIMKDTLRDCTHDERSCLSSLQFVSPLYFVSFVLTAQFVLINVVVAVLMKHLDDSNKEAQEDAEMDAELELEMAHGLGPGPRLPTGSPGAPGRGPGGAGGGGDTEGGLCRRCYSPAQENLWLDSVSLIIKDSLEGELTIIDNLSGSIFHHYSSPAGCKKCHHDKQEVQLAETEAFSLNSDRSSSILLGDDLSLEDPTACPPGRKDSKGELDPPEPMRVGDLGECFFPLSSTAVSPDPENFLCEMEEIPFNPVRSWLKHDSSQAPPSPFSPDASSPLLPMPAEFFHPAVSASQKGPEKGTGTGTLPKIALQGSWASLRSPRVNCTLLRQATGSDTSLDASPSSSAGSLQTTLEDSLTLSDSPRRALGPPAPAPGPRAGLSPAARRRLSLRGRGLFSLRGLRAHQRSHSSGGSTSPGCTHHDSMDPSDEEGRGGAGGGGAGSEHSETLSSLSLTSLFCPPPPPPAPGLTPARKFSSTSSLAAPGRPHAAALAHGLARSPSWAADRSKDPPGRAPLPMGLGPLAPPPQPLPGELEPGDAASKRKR
Sequence of hERG (Q12809 whole entry): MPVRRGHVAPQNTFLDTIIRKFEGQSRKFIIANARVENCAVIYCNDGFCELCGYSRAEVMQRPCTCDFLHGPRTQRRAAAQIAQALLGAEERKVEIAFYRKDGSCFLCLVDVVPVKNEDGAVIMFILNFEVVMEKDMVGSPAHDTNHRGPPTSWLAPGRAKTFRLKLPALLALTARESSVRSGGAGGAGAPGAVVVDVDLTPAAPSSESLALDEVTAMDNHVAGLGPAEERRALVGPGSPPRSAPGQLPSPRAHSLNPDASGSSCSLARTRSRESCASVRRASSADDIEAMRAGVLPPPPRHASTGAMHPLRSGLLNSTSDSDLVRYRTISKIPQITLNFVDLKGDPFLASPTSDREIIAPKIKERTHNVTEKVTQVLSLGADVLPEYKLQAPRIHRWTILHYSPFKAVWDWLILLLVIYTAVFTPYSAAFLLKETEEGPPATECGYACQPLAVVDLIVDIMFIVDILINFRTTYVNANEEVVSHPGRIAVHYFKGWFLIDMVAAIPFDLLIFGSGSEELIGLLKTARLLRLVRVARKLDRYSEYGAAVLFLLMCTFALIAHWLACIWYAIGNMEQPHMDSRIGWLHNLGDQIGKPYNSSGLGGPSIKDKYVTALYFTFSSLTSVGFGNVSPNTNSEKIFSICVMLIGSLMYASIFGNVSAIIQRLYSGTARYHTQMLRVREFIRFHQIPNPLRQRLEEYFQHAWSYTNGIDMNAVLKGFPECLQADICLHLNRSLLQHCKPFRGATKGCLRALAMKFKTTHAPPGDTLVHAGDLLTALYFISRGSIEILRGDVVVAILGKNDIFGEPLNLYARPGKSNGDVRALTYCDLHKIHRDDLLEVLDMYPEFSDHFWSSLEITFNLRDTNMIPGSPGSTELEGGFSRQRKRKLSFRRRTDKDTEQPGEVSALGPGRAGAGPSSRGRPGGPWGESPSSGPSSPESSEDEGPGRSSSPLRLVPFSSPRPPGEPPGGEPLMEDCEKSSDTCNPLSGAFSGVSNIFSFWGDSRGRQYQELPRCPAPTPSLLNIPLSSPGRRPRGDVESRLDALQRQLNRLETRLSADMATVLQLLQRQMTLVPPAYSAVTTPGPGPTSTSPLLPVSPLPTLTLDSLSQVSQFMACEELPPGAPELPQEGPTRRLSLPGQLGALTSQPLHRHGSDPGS
Sequence of PGP (P08183 whole entry): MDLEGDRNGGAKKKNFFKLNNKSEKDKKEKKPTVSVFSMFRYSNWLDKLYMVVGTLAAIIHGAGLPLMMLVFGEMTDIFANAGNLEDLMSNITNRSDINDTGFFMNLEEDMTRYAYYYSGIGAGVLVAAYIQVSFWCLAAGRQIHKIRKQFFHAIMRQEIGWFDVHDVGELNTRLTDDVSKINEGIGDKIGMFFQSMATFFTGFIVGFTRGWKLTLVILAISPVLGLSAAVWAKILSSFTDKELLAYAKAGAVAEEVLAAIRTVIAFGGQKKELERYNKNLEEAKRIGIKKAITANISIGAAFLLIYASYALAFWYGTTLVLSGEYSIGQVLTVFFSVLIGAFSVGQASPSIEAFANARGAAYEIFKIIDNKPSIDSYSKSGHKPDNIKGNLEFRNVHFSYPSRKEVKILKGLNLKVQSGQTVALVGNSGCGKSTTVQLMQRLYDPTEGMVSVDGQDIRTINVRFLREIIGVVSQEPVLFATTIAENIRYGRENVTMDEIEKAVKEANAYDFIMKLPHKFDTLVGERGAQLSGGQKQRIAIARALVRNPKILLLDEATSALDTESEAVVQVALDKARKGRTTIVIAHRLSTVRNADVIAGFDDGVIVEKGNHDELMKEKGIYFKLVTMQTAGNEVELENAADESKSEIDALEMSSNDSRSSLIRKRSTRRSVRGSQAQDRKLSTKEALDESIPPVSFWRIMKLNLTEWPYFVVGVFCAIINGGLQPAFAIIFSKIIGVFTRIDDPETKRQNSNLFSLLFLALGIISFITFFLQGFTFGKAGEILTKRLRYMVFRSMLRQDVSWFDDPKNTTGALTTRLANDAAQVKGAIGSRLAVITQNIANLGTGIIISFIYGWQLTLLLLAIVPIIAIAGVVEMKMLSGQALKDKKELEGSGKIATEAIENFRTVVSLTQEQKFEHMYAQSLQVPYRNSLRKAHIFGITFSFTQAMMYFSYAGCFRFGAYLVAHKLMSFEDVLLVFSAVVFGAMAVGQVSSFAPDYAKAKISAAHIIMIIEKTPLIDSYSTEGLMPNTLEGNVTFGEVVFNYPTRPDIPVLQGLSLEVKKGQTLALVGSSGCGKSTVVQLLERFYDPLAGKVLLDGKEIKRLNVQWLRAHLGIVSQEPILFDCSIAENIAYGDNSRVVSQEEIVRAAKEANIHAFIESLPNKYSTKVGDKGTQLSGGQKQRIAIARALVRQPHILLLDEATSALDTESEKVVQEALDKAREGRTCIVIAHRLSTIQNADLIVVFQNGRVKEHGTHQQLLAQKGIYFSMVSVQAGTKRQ
Sequence of α1I + Kir (Q9P0X4 whole entry): as the sequence (Q9P0X4 whole entry) above

In the case of C[C@@H](NC(=O)Cc1ccc(C2CC2)cc1)c1ccc(OCC(F)(F)F)cn1 [TTA-A2], the IC50 [1] is reported as greater than 10 µM, the “Panlabs hits >50% @10 uM” value [2] is reported as 0 hits >50% @10 uM and the PGP [3] is reported as 0.7. It also gave a Clp ([4]; IV (DMSO)) of 6 mL/min/kg, an F ([4]; PO (1% methylcellulose), 10 mpk) of 68% and an AUC [4, 15] of 46 µM·h. For the same compound, the Cmax [4, 15] was 7600 nM, the half-life ([4]; plasma, IV (DMSO)) was 1.6 h and the IC50 [5] was greater than 10 µM. It also gave a Clp ([6]; IV (DMSO)) of 17 mL/min/kg, a T1/2 ([6]; IV (DMSO)) of 0.9 h and an F ([6]; PO (1% methylcellulose), 3 mpk) of 7%. For the same compound, the AUC [6, 16] was 0.6 µM·h, the Cmax [6, 16] was 300 nM and the Papp [7] was 490 ×10⁻⁶ cm/s. The WAG/Rij inhibition [8] was 87% inhibition@4 hr, the IC50 [9] was greater than 10 µM and the IC50 ([10]; −80 mV, read-out: a1I VC (−80 mV)) was 0.098 µM. The IC50 ([10]; −100 mV, read-out: α1I VC (−100 mV)) was 4.2 µM, the Clp ([11]; IV (DMSO)) was 0.9 mL/min/kg and the T1/2 ([11]; IV (DMSO)) was 11 h. For the same compound, the F ([11]; PO (1% methylcellulose), 1 mpk) was 43%, the AUC [11, 17] was 23 µM·h and the Cmax [11, 17] was 2100 nM. It also gave an IC50 [12] greater than 10 µM, an IC50 [13] of 0.009 µM and an IC50 [14] of 0.296 µM.
